Reference: US20110105623A1 (Biogenic Innovations, LLC, priority 2009, published 2011)
Values joined by “and” are separate entries in the source; they are usually repeats but may differ in a detail not shown here. Equal values may be shown once. Read-outs that look alike come from different tables or passages of the source.

Legend:
Aspergillus niger = assay: USP Antimicrobial Effectiveness Test (AET), MSM in TSB; type: cell-based; parameters: key to AET microorganism count: Colonies too numerous to count (TNTC); settings: for Log Reduction from Initial Microorganism Inoculum: 1:10 dilution of MSM, 14, 28 Days; for AET microorganism count: 48 hrs
Description: Compounds or formulated products having antimicrobial activity may be evaluated with the United States Pharmacopeia (USP) Antimicrobial Effectiveness Test (AET). The AET involves the addition of specified microorganisms (Candida albicans, Aspergillus niger, Escherichia coli, Pseudomonas aeruginosa and Staphylococcus aureus) directly to a test product at relatively high concentrations to simulate contamination. The product is held for one month, with weekly analysis of microorganism levels. Depending on the route of administration of a product, satisfaction of the AET generally requires a 1 to 3 log reduction in bacteria from initial levels, which should occur in one to two weeks, with no further increase in bacteria after two weeks. For yeast and mold, no increase from the initial inoculums level is permitted.
Inoculations were made using Candida albicans, Aspergillus niger, Escherichia coli, Pseudomonas aeruginosa and Staphylococcus aureus. Tryptic soy broth (TSB) was used as the culturing media. […] The inoculated media was held for one month, during which time the added microorganisms were enumerated weekly to determine if they were growing, dying off, or remaining near the initial inoculation level. Data points were measured in triplicate at 48 hours, 3, 5, 14, 20, 28, and 30 days. The acceptance criteria for antimicrobial effectiveness are described in detail in the USP, herein incorporated by reference.

Bifidobacterium bifidum = assay: Growth in MRS broth fortified with MSM (anaerobic); type: cell-based; settings: for log higher than the 0% MSM control: 48 hours
Description: Each organism (Lactobacillus rhamnosus, Lactobacillus acidophilus, and Bifidobacterium bifidum) was grown in MRS bacterial growth medium (broth) and plated on MRS agar at different time intervals. Results are expressed in colony forming units per milliliter (cfu/mL).
The 0.1% and 0.04% test concentrations were prepared by making a 1:10 dilution of the 1% and 0.4% test solutions. Once each set of test media was plated for sterility, they were inoculated at a level of 100 μl of inoculum per 100 g or mLs of test broth (1:1000 inoculum dilutions) with each respective microorganism. All bacterial organisms were incubated at 35° C.+/−2° C. for the duration of the study.
All samples were plated on MRS agar at time 0, 12, 36, 48, 60 and 72 hours (+/−45 minutes). All preparations and plating were conducted at room temperature. All plating events were incubated at 35° C.+/−2° C. for at least 2 days or 3 days for Bifidobacterium. Test samples were plated in triplicate at each test date and the averages are reported.
Bifidobacterium bifidum, a common microbe used in probiotics, was also tested. All Bifidobacterium samples were incubated under anaerobic conditions.

Candida albicans = assay: USP <51> AET in cosmetic cream/composition; type: cell-based; settings: for AET microorganism count: 48 hrs-28 days; for Log Reduction from Initial Microorganism Inoculum: 14, 28 Days
[1] = test system: normal flora found in the product; settings: for Log Growth: rows 0.5-10% MSM
[2] = test system: Lactobacillus acidophilus milk; assay: Growth in simulated gastric acid supplemented with MSM; settings: for Log Growth of L. acidophilus in milk average / Log Growth of L. acidophilus in milk in duplicate: simulated gastric acid
[3] = test system: Streptococcus Pyogenes (Lancefield group A, #10096); assay: Bacterial viability by bioluminescent ATP assay

## Methylsulfonylmethane [MSM]
Aspergillus niger; 14 days after inoculation
  Log Reduction from Initial Microorganism Inoculum: 4.3 log
Aspergillus niger; 28 days after inoculation
  Log Reduction from Initial Microorganism Inoculum: 4.5 log
Aspergillus niger; 1:100 dilution of MSM
  AET microorganism count: TNTC*
Aspergillus niger; 1:1000 dilution of MSM
  AET microorganism count: TNTC*
Bifidobacterium bifidum; 0.2% MSM
  log increases of Bifidobacterium: 2 log
  log higher than the 0% MSM control: 1 log
Bifidobacterium bifidum; 0.04% MSM
  log higher than the 0% MSM control: 1 log
Candida albicans; 10% MSM in Preservative Free Cosmetic Composition #2, 48 hours after inoculation
  AET microorganism count: 9.0 × 10^2
Candida albicans; 10% MSM in Preservative Free Cosmetic Composition #2, 7 days after inoculation
  AET microorganism count: <10
Candida albicans; 10% MSM in cosmetic cream without preservative
  AET microorganism count: <10
Candida albicans; 10% MSM in preservative-free jojoba cream
  Log Reduction from Initial Microorganism Inoculum: 4.3 log
Candida albicans; 10% MSM, Composition #1
  Log Reduction from Initial Microorganism Inoculum: 5.3 log
Candida albicans; 10% MSM, Composition #2
  Log Reduction from Initial Microorganism Inoculum: 5.3 log
[1]; 0.5% MSM, day 0
  Log Growth of 40% Milk Fat: 0.00 logs
[1]; 0.5% MSM, day 7
  Log Growth of 40% Milk Fat: 0.35 logs
[1]; 0.5% MSM, day 14
  Log Growth of 40% Milk Fat: 2.32 logs
[1]; 0.5% MSM, day 21
  Log Growth of 40% Milk Fat: 4.46 logs
[1]; 0.5% MSM, day 24
  Log Growth of 40% Milk Fat: 4.02 logs
[1]; 0.5% MSM, day 28
  Log Growth of 40% Milk Fat: 1.95 logs
[1]; 1.0% MSM, day 7
  Log Growth of 40% Milk Fat: 0.00 logs
[1]; 1.0% MSM, day 14
  Log Growth of 40% Milk Fat: 2.37 logs
[1]; 1.0% MSM, day 21
  Log Growth of 40% Milk Fat: 4.35 logs
[1]; 1.0% MSM, day 24
  Log Growth of 40% Milk Fat: 3.33 logs
[1]; 1.0% MSM, day 28
  Log Growth of 40% Milk Fat: 3.86 logs
[1]; 2% Milk Fat, day 7
  Log Growth: 1.59 log
[1]; 5.0% MSM, day 0
  Log Growth of 40% Milk Fat: 0.00 logs
[1]; 5.0% MSM, day 7
  Log Growth of 40% Milk Fat: 0.80 logs
[1]; 5.0% MSM, day 14
  Log Growth of 40% Milk Fat: 0.50 logs
[1]; 5.0% MSM, day 21
  Log Growth of 40% Milk Fat: 1.25 logs
[1]; 5.0% MSM, day 24
  Log Growth of 40% Milk Fat: 1.03 logs
[1]; 5.0% MSM, day 28
  Log Growth of 40% Milk Fat: 0.35 logs
[1]; 10.0% MSM, day 0
  Log Growth of 40% Milk Fat: 0.00 logs
[1]; 10.0% MSM, day 7
  Log Growth of 40% Milk Fat: 0.00 logs
[1]; 10.0% MSM, day 14
  Log Growth of 40% Milk Fat: 1.95 logs
[1]; 10.0% MSM, day 21
  Log Growth of 40% Milk Fat: 4.45 logs
[1]; 10.0% MSM, day 24
  Log Growth of 40% Milk Fat: 0.85 logs
[1]; 10.0% MSM, day 28
  Log Growth of 40% Milk Fat: 0.35 logs
[1]; 40% milk product, Day 21, 5.0% MSM
  lower than the control by: 3.22 logs
[1]; 40% milk product, Day 21, […] MSM
  microbial load: 2.16 logs
[1]; 40% milk product, Day 28, 5.0% and 10.0% MSM
  microbial count: 0.35 logs
[1]; Nonfat Milk, day 7
  Log Growth: 1.00 log
[1]; […] MSM, day 0
  Log Growth of 40% Milk Fat: 0.00 logs
[1]; […] MSM, day 7
  Log Growth of 40% Milk Fat: 0.00 logs
[1]; […] MSM, day 14
  Log Growth of 40% Milk Fat: 0.00 logs
[1]; […] MSM, day 21
  Log Growth of 40% Milk Fat: 2.16 logs
[1]; […] MSM, day 24
  Log Growth of 40% Milk Fat: 3.79 logs
[1]; […] MSM, day 28
  Log Growth of 40% Milk Fat: 0.95 logs
[2]; 5% MSM, 0 hours
  Log Growth of L. acidophilus in milk average: 0.41 logs
[2]; 5% MSM, 3 hours
  Log Growth of L. acidophilus in milk average: 0.41 logs
[2]; 5% MSM, 6 hours
  Log Growth of L. acidophilus in milk average: 0.91 logs
  Log Growth of L. acidophilus in milk in duplicate: 0.82 logs and 1 logs
[2]; 5% MSM, 9 hours
  Log Growth of L. acidophilus in milk average: 0.52 logs
  Log Growth of L. acidophilus in milk in duplicate: 0.52 logs
[2]; 5% MSM, 12 hours
  Log Growth of L. acidophilus in milk average: 1.10 logs
[2]; 5% MSM, 15 hours
  Log Growth of L. acidophilus in milk average: 1.43 logs
  Log Growth of L. acidophilus in milk in duplicate: 1.43 logs
[2]; 5% MSM, 24 hours
  Log Growth of L. acidophilus in milk average: 1.66 logs
  Log Growth of L. acidophilus in milk in duplicate: 1.67 logs and 1.64 logs
[2]; 5% MSM, 48 hours
  Log Growth of L. acidophilus in milk average: 1.33 logs
  Log Growth of L. acidophilus in milk in duplicate: 1.22 logs and 1.43 logs
[2]; 5.0% MSM, Hour 48
  decrease in growth: 0.33 logs
[2]; 5.0% MSM, at 24 hours
  increase in growth: 0.23 logs
[2]; […] MSM, 0 hours
  Log Growth of L. acidophilus in milk average: 0 logs
  Log Growth of L. acidophilus in milk in duplicate: 0 logs
[2]; […] MSM, 9 hours
  Log Growth of L. acidophilus in milk average: 0.41 logs
[2]; […] MSM, Hour 48
  decrease in growth: 0.38 logs
[2]; […] MSM, at 24 hours
  decrease in growth: 0.11 logs
[2]; printed […] MSM, at 24 hours
  increase in growth: 0.30 logs
[3]
  IC50: 10.26%
